Laboratory results: paper PMC4255919 (Nature, 2014)

Tests used:
[1] = molecular target: T1, GluCl (C. elegans GluClα, GluClcryst) (Caenorhabditis elegans, UniProt G5EBR3, INS363AGT/DEL364-421); test: X-ray crystal structure at […] Å; format: binding
T1 sequence (G5EBR3 with tags, fused parts or gaps INS363AGT/DEL364-421): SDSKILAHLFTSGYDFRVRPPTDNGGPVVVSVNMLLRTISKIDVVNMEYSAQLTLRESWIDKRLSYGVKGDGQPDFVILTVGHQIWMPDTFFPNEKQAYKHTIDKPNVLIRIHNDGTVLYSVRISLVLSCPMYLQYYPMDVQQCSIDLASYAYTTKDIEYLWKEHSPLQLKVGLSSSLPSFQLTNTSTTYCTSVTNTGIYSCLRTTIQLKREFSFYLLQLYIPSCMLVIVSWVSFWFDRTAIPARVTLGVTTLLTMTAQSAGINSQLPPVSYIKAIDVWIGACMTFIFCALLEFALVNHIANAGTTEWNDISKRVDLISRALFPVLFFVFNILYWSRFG

[2] = molecular target: GluCl (C. elegans GluClα, GluClcryst) (Caenorhabditis elegans, UniProt G5EBR3, DEL364-421/INS363AGT); test: radioligand competition with [3H]-ivermectin; format: binding

Compound | X-ray crystal structure at 3.2 Å [1] | Ki [2] [µM]
CCCCCCCC/C=C\CCCCCCCC(=O)O[C@@H](COC(=O)CCCCCCCCCCCCCCC)COP(=O)([O-])OCC[N+](C)(C)C [POPC, 1-palmitoyl-2-oleoyl-sn-glycero-3-phosphocholine] | We modeled these densities as POPC molecules with the phosphocholine head group pointing towards the center of the pore | 
CCCCCCCC/C=C\CCCCCCCC(=O)O[C@H](COC(=O)CCCCCCCCCCCCCCC)COP(=O)(O)OC[C@H](N)C(=O)O [POPS, 1-palmitoyl-2-oleoyl-sn-glycero-3-phosphoserine] |  | 167
